We go through 13 molecules from patent US20110294778A1, “HEPATITIS C INHIBITOR COMPOUNDS” (priority 2009, published 2011).

SMILES strings stand for the structures.

In test [1] the test system is HCV genotype 1b (Con-1) subgenomic replicon with NS3 resistance mutation D168V in Huh-7 cells. As to the kind of experiment: HCV replicon RNA replication assay (NS3 protease variants), genotype 1b D168V. The following applies: Hepatitis C virus, Huh-7, 72 h, read-out: D168V 1b EC50 (nM). The class given is cell-based.
Test [2] has as its system HCV genotype 1a (strain H77) subgenomic replicon with NS3 resistance mutation R155K in Huh-7 cells. Put plainly: HCV replicon RNA replication assay (NS3 protease variants), genotype 1a R155K. The test is classed as cell-based. The following applies: Hepatitis C virus, Huh-7, 72 h, read-out: R155K 1a EC50 (nM). On the technique in general: Replicon systems follow genome replication, usually without infectious particles.

The EC50 is the concentration at which the effect is half-maximal. Regarding `COc1ccc2c(O[C@@H]3C[C@H]4C(=O)N[C@]5(C(=O)NS(=O)(=O)C6CC6)C[C@H]5/C=C\CCCCC[C@H](NC(=O)c5ccn(C(F)F)n5)C(=O)N4C3)cc(OC(C)C)nc2c1C` [Compound 1027, (2R,6S,12Z,13aS,14aR,16aS)-N-(cyclopropylsulfonyl)-6-({[1-(difluoromethyl)-1H-pyrazol-3-yl]carbonyl}amino)-2-{[7-methoxy-8-methyl-2-(propan-2-yloxy)quinolin-4-yl]oxy}-5,16-dioxo-1,2,3,6,7,8,9,10,11,13a,14,15,16,16a-tetradecahydrocyclopropa[e]pyrrolo[1,2-a][1,4]diazacyclopentadecine-14a(5H)-carboxamide], the concentration for a half-maximal effect (EC50) in test [1] was determined as 0.35 nM; in test [2], 8.4 nM.

Regarding `COc1ccc2c(O[C@@H]3C[C@H]4C(=O)N[C@]5(C(=O)NS(=O)(=O)C6(C)CC6)C[C@H]5/C=C\CCCCC[C@H](NC(=O)c5ccn(C)n5)C(=O)N4C3)cc(OC3CC3)nc2c1C` [Compound 1028, (2R,6S,12Z,13aS,14aR,16aS)-2-{[2-(cyclopropyloxy)-7-methoxy-8-methylquinolin-4-yl]oxy}-N-[(1-methylcyclopropyl)sulfonyl]-6-{[(1-methyl-1H-pyrazol-3-yl)carbonyl]amino}-5,16-dioxo-1,2,3,6,7,8,9,10,11,13a,14,15,16,16a-tetradecahydrocyclopropa[e]pyrrolo[1,2-a][1,4]diazacyclopentadecine-14a(5H)-carboxamide], the EC50 in test [1] came to 0.37 nM; in test [2], 3.7 nM.

Consider `CCOc1cc(O[C@@H]2C[C@H]3C(=O)N[C@]4(C(=O)NS(=O)(=O)C5(C)CC5)C[C@H]4/C=C\CCCCC[C@H](NC(=O)c4ccn(CC(F)(F)F)n4)C(=O)N3C2)c2ccc(OC)c(C)c2n1` [Compound 1029, (2R,6S,12Z,13aS,14aR,16aS)-2-[(2-ethoxy-7-methoxy-8-methylquinolin-4-yl)oxy]-N-[(1-methylcyclopropyl)sulfonyl]-5,16-dioxo-6-({[1-(2,2,2-trifluoroethyl)-1H-pyrazol-3-yl]carbonyl}amino)-1,2,3,6,7,8,9,10,11,13a,14,15,16,16a-tetradecahydrocyclopropa[e]pyrrolo[1,2-a][1,4]diazacyclopentadecine-14a(5H)-carboxamide], for which the EC50 is 0.37 nM in test [1] and 6 nM in test [2].

Take `CCOc1cc(O[C@@H]2C[C@H]3C(=O)N[C@]4(C(=O)NS(=O)(=O)C5(C)CC5)C[C@H]4/C=C\CCCCC[C@H](NC(=O)c4ccn(C)n4)C(=O)N3C2)c2ccc(OC)c(C)c2n1` [Compound 1030, (2R,6S,12Z,13aS,14aR,16aS)-2-[(2-ethoxy-7-methoxy-8-methylquinolin-4-yl)oxy]-N-[(1-methylcyclopropyl)sulfonyl]-6-{[(1-methyl-1H-pyrazol-3-yl)carbonyl]amino}-5,16-dioxo-1,2,3,6,7,8,9,10,11,13a,14,15,16,16a-tetradecahydrocyclopropa[e]pyrrolo[1,2-a][1,4]diazacyclopentadecine-14a(5H)-carboxamide]: the EC50 in test [1] was 0.38 nM; in test [2], 6.3 nM.

With `COc1ccc2c(O[C@@H]3C[C@H]4C(=O)N[C@]5(C(=O)NS(=O)(=O)C6CC6)C[C@H]5/C=C\CCCCC[C@H](NC(=O)c5ccn(CCF)n5)C(=O)N4C3)cc(OC(C)C)nc2c1C` [Compound 1031, (2R,6S,12Z,13aS,14aR,16aS)-N-(cyclopropylsulfonyl)-6-({[1-(2-fluoroethyl)-1H-pyrazol-3-yl]carbonyl}amino)-2-{[7-methoxy-8-methyl-2-(propan-2-yloxy)quinolin-4-yl]oxy}-5,16-dioxo-1,2,3,6,7,8,9,10,11,13a,14,15,16,16a-tetradecahydrocyclopropa[e]pyrrolo[1,2-a][1,4]diazacyclopentadecine-14a(5H)-carboxamide], the EC50 in test [1] is 0.39 nM; in test [2] it was 4.2 nM.

Take `COc1ccc2c(O[C@@H]3C[C@H]4C(=O)N[C@]5(C(=O)NS(=O)(=O)C6CC6)C[C@H]5/C=C\CCCCC[C@H](NC(=O)c5ccno5)C(=O)N4C3)cc(OC(C)C)nc2c1C` [Compound 1032, (2R,6S,12Z,13aS,14aR,16aS)-N-(cyclopropylsulfonyl)-2-{[7-methoxy-8-methyl-2-(propan-2-yloxy)quinolin-4-yl]oxy}-6-[(1,2-oxazol-5-ylcarbonyl)amino]-5,16-dioxo-1,2,3,6,7,8,9,10,11,13a,14,15,16,16a-tetradecahydrocyclopropa[e]pyrrolo[1,2-a][1,4]diazacyclopentadecine-14a(5H)-carboxamide]: the figures for the concentration giving a half-maximal response (EC50) in test [1] and in test [2] were 0.58 nM and 7.8 nM, respectively.

Consider `Cc1ccc(C(=O)N[C@H]2CCCCC/C=C\[C@@H]3C[C@@]3(C(=O)NS(=O)(=O)C3(C)CC3)NC(=O)[C@@H]3C[C@@H](Oc4cc(OC(C)C)nc5c(C)c(O)ccc45)CN3C2=O)s1` [Compound 1033, (2R,6S,12Z,13aS,14aR,16aS)-2-{[7-hydroxy-8-methyl-2-(propan-2-yloxy)quinolin-4-yl]oxy}-N-[(1-methylcyclopropyl)sulfonyl]-6-{[(5-methylthiophen-2-yl)carbonyl]amino}-5,16-dioxo-1,2,3,6,7,8,9,10,11,13a,14,15,16,16a-tetradecahydrocyclopropa[e]pyrrolo[1,2-a][1,4]diazacyclopentadecine-14a(5H)-carboxamide], for which the EC50 in test [1] amounted to 0.58 nM; in test [2], 0.77 nM.

Regarding `COc1ccc2c(O[C@@H]3C[C@H]4C(=O)N[C@]5(C(=O)NS(=O)(=O)C6CC6)C[C@H]5/C=C\CCCCC[C@H](NC(=O)c5cc(C)n(C)n5)C(=O)N4C3)cc(OC(C)C)nc2c1C` [Compound 1034, (2R,6S,12Z,13aS,14aR,16aS)-N-(cyclopropylsulfonyl)-6-{[(1,5-dimethyl-1H-pyrazol-3-yl)carbonyl]amino}-2-{[7-methoxy-8-methyl-2-(propan-2-yloxy)quinolin-4-yl]oxy}-5,16-dioxo-1,2,3,6,7,8,9,10,11,13a,14,15,16,16a-tetradecahydrocyclopropa[e]pyrrolo[1,2-a][1,4]diazacyclopentadecine-14a(5H)-carboxamide], the EC50 in test [1] worked out at 0.67 nM; in test [2], 7.7 nM.

Regarding `COc1ccc2c(O[C@@H]3C[C@H]4C(=O)N[C@]5(C(=O)NS(=O)(=O)C6CC6)C[C@H]5/C=C\CCCCC[C@H](NC(=O)c5ccc(C)s5)C(=O)N4C3)cc(OCC(F)(F)F)nc2c1C` [Compound 1035, (2R,6S,12Z,13aS,14aR,16aS)-N-(cyclopropylsulfonyl)-2-{[7-methoxy-8-methyl-2-(2,2,2-trifluoroethoxy)quinolin-4-yl)oxy}-6-{[(5-methylthiophen-2-yl)carbonyl]amino}-5,16-dioxo-1,2,3,6,7,8,9,10,11,13a,14,15,16,16a-tetradecahydrocyclopropa[e]pyrrolo[1,2-a][1,4]diazacyclopentadecine-14a(5H)-carboxamide], the EC50 in test [1] was 0.77 nM; in test [2] it was 8.2 nM.

Turning to `Cc1ccc(C(=O)N[C@H]2CCCCC/C=C\[C@@H]3C[C@@]3(C(=O)NS(=O)(=O)C3CC3)NC(=O)[C@@H]3C[C@@H](Oc4cc(OC(C)C)nc5c(C)c(O)ccc45)CN3C2=O)s1` [Compound 1036, (2R,6S,12Z,13aS,14aR,16aS)-N-(cyclopropylsulfonyl)-2-{[7-hydroxy-8-methyl-2-(propan-2-yloxy)quinolin-4-yl]oxy}-6-{[(5-methylthiophen-2-yl)carbonyl]amino}-5,16-dioxo-1,2,3,6,7,8,9,10,11,13a,14,15,16,16a-tetradecahydrocyclopropa[e]pyrrolo[1,2-a][1,4]diazacyclopentadecine-14a(5H)-carboxamide], the EC50 was 1.3 nM in test [1] and 3.2 nM in test [2].

Regarding `Cc1c(O)ccc2c(O[C@@H]3C[C@H]4C(=O)N[C@]5(C(=O)NS(=O)(=O)C6CC6)C[C@H]5/C=C\CCCCC[C@H](NC(=O)c5ccn(C)n5)C(=O)N4C3)cc(OC(C)C)nc12` [Compound 1037, (2R,6S,12Z,13aS,14aR,16aS)-N-(cyclopropylsulfonyl)-2-{[7-hydroxy-8-methyl-2-(propan-2-yloxy)quinolin-4-yl]oxy}-6-{[(1-methyl-1H-pyrazol-3-yl)carbonyl]amino}-5,16-dioxo-1,2,3,6,7,8,9,10,11,13a,14,15,16,16a-tetradecahydrocyclopropa[e]pyrrolo[1,2-a][1,4]diazacyclopentadecine-14a(5H)-carboxamide], the EC50 in test [1] was 3.7 nM; in test [2], 4.3 nM.

In the case of `COc1ccc2c(O[C@@H]3C[C@H]4C(=O)N[C@]5(C(=O)NS(=O)(=O)C6(C)CC6)C[C@H]5/C=C\CCCCC[C@H](NC(=O)N5CCC5)C(=O)N4C3)cc(OC(C)C)nc2c1C` [Compound 2001, (2R,6S,12Z,13aS,14aR,16aS)-6-[(azetidin-1-ylcarbonyl)amino]-2-{[7-methoxy-8-methyl-2-(propan-2-yloxy)quinolin-4-yl]oxy}-N-[(1-methylcyclopropyl)sulfonyl]-5,16-dioxo-1,2,3,6,7,8,9,10,11,13a,14,15,16,16a-tetradecahydrocyclopropa[e]pyrrolo[1,2-a][1,4]diazacyclopentadecine-14a(5H)-carboxamide], the EC50 stood at 0.48 nM in test [1] and 2.3 nM in test [2].

With `COc1c(F)ccc2c(O[C@@H]3C[C@H]4C(=O)N[C@]5(C(=O)NS(=O)(=O)C6(C)CC6)C[C@H]5/C=C\CCCCC[C@H](NC(=O)N(C)C)C(=O)N4C3)cc(OC(C)C)nc12` [Compound 2002, (2R,6S,12Z,13aS,14aR,16aS)-6-[(dimethylcarbamoyl)amino]-2-{[7-fluoro-8-methoxy-2-(propan-2-yloxy)quinolin-4-yl]oxy}-N-[(1-methylcyclopropyl)sulfonyl]-5,16-dioxo-1,2,3,6,7,8,9,10,11,13a,14,15,16,16a-tetradecahydrocyclopropa[e]pyrrolo[1,2-a][1,4]diazacyclopentadecine-14a(5H)-carboxamide], the EC50 in test [1] was found to be 0.41 nM; in test [2] it was 4.7 nM.
